Assay results taken from patent US20240190880A1 (THE REGENTS OF THE UNIVERSITY OF MICHIGAN, priority 2021, published 2024).

target: T1, ER (Homo sapiens, UniProt P03372); experiment: ER degradation activity, in-cell western blot analysis in T47D cells; type: cell-based; settings: 16 hours, Table A does not say which cell line (T47D or MCF7), read-out: Potency (DC50)
T1 construct: host or cells: T47D and MCF7 human breast cancer cells
T1 sequence (P03372 1-595): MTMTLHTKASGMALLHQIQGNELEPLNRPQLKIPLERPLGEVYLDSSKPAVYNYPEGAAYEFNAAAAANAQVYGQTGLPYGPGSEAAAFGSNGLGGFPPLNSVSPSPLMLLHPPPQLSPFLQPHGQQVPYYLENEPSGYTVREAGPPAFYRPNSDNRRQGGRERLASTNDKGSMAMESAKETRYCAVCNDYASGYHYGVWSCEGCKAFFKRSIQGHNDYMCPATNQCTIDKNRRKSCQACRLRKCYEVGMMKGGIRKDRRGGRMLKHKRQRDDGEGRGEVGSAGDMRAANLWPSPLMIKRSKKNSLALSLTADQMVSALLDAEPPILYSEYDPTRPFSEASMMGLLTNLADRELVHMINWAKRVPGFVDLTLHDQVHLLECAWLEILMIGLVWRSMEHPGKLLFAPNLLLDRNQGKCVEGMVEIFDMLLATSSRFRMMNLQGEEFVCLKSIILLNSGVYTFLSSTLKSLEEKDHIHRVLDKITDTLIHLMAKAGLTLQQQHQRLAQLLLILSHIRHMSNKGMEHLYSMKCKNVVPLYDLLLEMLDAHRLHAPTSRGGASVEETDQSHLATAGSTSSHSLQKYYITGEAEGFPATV
Procedure, shortened: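 Human T47D cells (DMEM, 10% FBS) are dosed for 16 h with 0.5% DMSO final and probed with 680- and 800-dye secondary antibodies. Relative ER is calculated against vehicle and untreated wells.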

DC50 [nM] | SMILES
> 100 | C[C@@H]1Cc2cc(O)ccc2[C@@H](c2ccc(N3CCC(C(=O)N4CC(CN5Cc6cc7c(cc6C5)C(=O)N(C5CCC(=O)NC5=O)C7=O)C4)CC3)cc2F)N1CC(F)F (stereo partly drawn) [E 349, 6-((1-(1-(4-((1S,3R)-2-(2,2-difluoroethyl)-6-hydroxy-3-methyl-1,2,3,4-tetrahydroisoquinolin-1-yl)-3-fluorophenyl)piperidine-4-carbonyl)azetidin-3-yl)methyl)-2-(2,6-dioxopiperidin-3-yl)-6,7-dihydropyrrolo[3,4-f]isoindole-1,3(2H,5H)-dione]
> 100 | C[C@@H]1Cc2cc(O)ccc2[C@@H](c2ccc(N3CCC(C(=O)N4CC(CN5Cc6cc7c(cc6C5)C(=O)N(C5CCC(=O)NC5=O)C7=O)C4)CC3)cc2)N1CC(F)F (stereo partly drawn) [E 350, 6-((1-(1-(4-((1R,3R)-2-(2,2-difluoroethyl)-6-hydroxy-3-methyl-1,2,3,4-tetrahydroisoquinolin-1-yl)phenyl)piperidine-4-carbonyl)azetidin-3-yl)methyl)-2-(2,6-dioxopiperidin-3-yl)-6,7-dihydropyrrolo[3,4-f]isoindole-1,3(2H,5H)-dione]
> 100 | C[C@@H]1Cc2cc(O)ccc2[C@@H](c2ccc(N3CCC(C(=O)N4CC(CN5Cc6cc7c(cc6C5)C(=O)N(C5CCC(=O)NC5=O)C7=O)C4)CC3)cn2)N1CC(F)F (stereo partly drawn) [E 351, 6-((1-(1-(6-((1S,3R)-2-(2,2-difluoroethyl)-6-hydroxy-3-methyl-1,2,3,4-tetrahydroisoquinolin-1-yl)pyridin-3-yl)piperidine-4-carbonyl)azetidin-3-yl)methyl)-2-(2,6-dioxopiperidin-3-yl)-6,7-dihydropyrrolo[3,4-f]isoindole-1,3(2H,5H)-dione]
< 10 | O=C1CCC(N2Cc3cc4c(cc3C2=O)CN(C(=O)CN2CCC3(CC2)CCN(c2ccc([C@@H]5c6ccc(O)cc6CC[C@@H]5c5ccccc5)cc2)CC3)C4)C(=O)N1 (stereo partly drawn) [E 354, 3-(6-(2-(9-(4-((1R,2S)-6-hydroxy-2-phenyl-1,2,3,4-tetrahydronaphthalen-1-yl)phenyl)-3,9-diazaspiro[5.5]undecan-3-yl)acetyl)-1-oxo-3,5,6,7-tetrahydropyrrolo[3,4-f]isoindol-2(1H)-yl)piperidine-2,6-dione]
10 to 100 | O=C1CCC(N2Cc3cc4c(cc3C2=O)CN(C(=O)C2CCC(NC3CN(c5ccc([C@@H]6c7ccc(O)cc7CC[C@@H]6c6ccccc6)cc5)C3)CC2)C4)C(=O)N1 (stereo partly drawn) [E 359, 3-(6-(4-((1-(4-((1R,2S)-6-hydroxy-2-phenyl-1,2,3,4-tetrahydronaphthalen-1-yl)phenyl)azetidin-3-yl)amino)cyclohexane-1-carbonyl)-1-oxo-3,5,6,7-tetrahydropyrrolo[3,4-f]isoindol-2(1H)-yl)piperidine-2,6-dione]
> 100 | CN(C1CCN(c2ccc([C@@H]3c4ccc(O)cc4CC[C@@H]3c3ccccc3)cc2)CC1)C1CC(C(=O)N2Cc3cc4c(cc3C2)C(=O)N(C2CCC(=O)NC2=O)C4=O)C1 (stereo partly drawn) [E 362, 2-(2,6-dioxopiperidin-3-yl)-6-(3-((1-(4-((1R,2S)-6-hydroxy-2-phenyl-1,2,3,4-tetrahydronaphthalen-1-yl)phenyl)piperidin-4-yl)(methyl)amino)cyclobutane-1-carbonyl)-6,7-dihydropyrrolo[3,4-f]isoindole-1,3(2H,5H)-dione]
< 10 | O=C1CCC(N2C(=O)c3cc4c(cc3C2=O)CN(C(=O)[C@H]2CC[C@H](CN3CC(Nc5ccc([C@@H]6c7ccc(O)cc7CC[C@@H]6c6ccccc6)cc5)C3)CC2)C4)C(=O)N1 (stereo partly drawn) [E 363, 2-(2,6-dioxopiperidin-3-yl)-6-((1R,4r)-4-((3-((4-((1R,2S)-6-hydroxy-2-phenyl-1,2,3,4-tetrahydronaphthalen-1-yl)phenyl)amino)azetidin-1-yl)methyl)cyclohexane-1-carbonyl)-6,7-dihydropyrrolo[3,4-f]isoindole-1,3(2H,5H)-dione]
10 to 100 | O=C1CCC(N2C(=O)c3cc4c(cc3C2=O)CN(C(=O)[C@H]2CC[C@@H](CN3CC(Nc5ccc([C@@H]6c7ccc(O)cc7CC[C@@H]6c6ccccc6)cc5)C3)CC2)C4)C(=O)N1 (stereo partly drawn) [E 364, 2-(2,6-dioxopiperidin-3-yl)-6-((1S,4s)-4-((3-((4-((1R,2S)-6-hydroxy-2-phenyl-1,2,3,4-tetrahydronaphthalen-1-yl)phenyl)amino)azetidin-1-yl)methyl)cyclohexane-1-carbonyl)-6,7-dihydropyrrolo[3,4-f]isoindole-1,3(2H,5H)-dione]
> 100 | O=C1CCC(N2C(=O)c3cc4c(cc3C2=O)CN(C(=O)C2CCC(CN3CCN(c5ccc([C@@H]6c7ccc(O)cc7CC[C@@H]6c6ccccc6)cc5)CC3)CC2)C4)C(=O)N1 (stereo partly drawn) [E 365, 2-(2,6-dioxopiperidin-3-yl)-6-(4-((4-(4-((1R,2S)-6-hydroxy-2-phenyl-1,2,3,4-tetrahydronaphthalen-1-yl)phenyl)piperazin-1-yl)methyl)cyclohexane-1-carbonyl)-6,7-dihydropyrrolo[3,4-f]isoindole-1,3(2H,5H)-dione]
> 100 | C[C@@H]1Cc2c([nH]c3ccccc23)[C@@H](c2c(F)cc(C3CCN(C[C@H]4CC[C@H](N5Cc6cc7c(cc6C5)C(=O)N(C5CCC(=O)NC5=O)C7=O)CC4)CC3)cc2F)N1CC(F)F (stereo partly drawn) [E 366, 6-((1R,4r)-4-((4-(4-((1R,3R)-2-(2,2-difluoroethyl)-3-methyl-2,3,4,9-tetrahydro-1H-pyrido[3,4-b]indol-1-yl)-3,5-difluorophenyl)piperidin-1-yl)methyl)cyclohexyl)-2-(2,6-dioxopiperidin-3-yl)-6,7-dihydropyrrolo[3,4-f]isoindole-1,3(2H,5H)-dione]
> 100 | C[C@@H]1Cc2c([nH]c3ccccc23)[C@@H](c2c(F)cc(C3CCN(C[C@H]4CC[C@@H](N5Cc6cc7c(cc6C5)C(=O)N(C5CCC(=O)NC5=O)C7=O)CC4)CC3)cc2F)N1CC(F)F (stereo partly drawn) [E 367, 6-((1S,4s)-4-((4-(4-((1R,3R)-2-(2,2-difluoroethyl)-3-methyl-2,3,4,9-tetrahydro-1H-pyrido[3,4-b]indol-1-yl)-3,5-difluorophenyl)piperidin-1-yl)methyl)cyclohexyl)-2-(2,6-dioxopiperidin-3-yl)-6,7-dihydropyrrolo[3,4-f]isoindole-1,3(2H,5H)-dione]
> 100 | C[C@@H]1Cc2c([nH]c3ccccc23)[C@@H](c2c(F)cc(C(=O)N3CCC4(CC3)CC(CN3Cc5cc6c(cc5C3)C(=O)N(C3CCC(=O)NC3=O)C6=O)C4)cc2F)N1CC(F)F (stereo partly drawn) [E 369, 6-((7-(4-((1R,3R)-2-(2,2-difluoroethyl)-3-methyl-2,3,4,9-tetrahydro-1H-pyrido[3,4-b]indol-1-yl)-3,5-difluorobenzoyl)-7-azaspiro[3.5]nonan-2-yl)methyl)-2-(2,6-dioxopiperidin-3-yl)-6,7-dihydropyrrolo[3,4-f]isoindole-1,3(2H,5H)-dione]
> 100 | C[C@@H]1Cc2c([nH]c3ccccc23)[C@@H](c2c(F)cc(CN3CCC4(CC3)CC(CN3Cc5cc6c(cc5C3)C(=O)N(C3CCC(=O)NC3=O)C6=O)C4)cc2F)N1CC(F)F (stereo partly drawn) [E 370, 6-((7-(4-((1R,3R)-2-(2,2-difluoroethyl)-3-methyl-2,3,4,9-tetrahydro-1H-pyrido[3,4-b]indol-1-yl)-3,5-difluorobenzyl)-7-azaspiro[3.5]nonan-2-yl)methyl)-2-(2,6-dioxopiperidin-3-yl)-6,7-dihydropyrrolo[3,4-f]isoindole-1,3(2H,5H)-dione]
> 100 | O=C1CCC(N2C(=O)c3cc4c(cc3C2=O)CN(Cc2ccc(N3CC(Nc5ccc([C@@H]6c7ccc(O)cc7CC[C@@H]6c6ccccc6)cc5)C3)nc2)C4)C(=O)N1 (stereo partly drawn) [E 373, 2-(2,6-dioxopiperidin-3-yl)-6-((6-(3-((4-((1R,2S)-6-hydroxy-2-phenyl-1,2,3,4-tetrahydronaphthalen-1-yl)phenyl)amino)azetidin-1-yl)pyridin-3-yl)methyl)-6,7-dihydropyrrolo[3,4-f]isoindole-1,3(2H,5H)-dione]
> 100 | O=C1CCC(N2C(=O)c3cc4c(cc3C2=O)CN(C[C@H]2CC[C@H](N3CC(Nc5ccc([C@@H]6c7ccc(O)cc7CC[C@@H]6c6ccccc6)cc5)C3)CC2)C4)C(=O)N1 (stereo partly drawn) [E 374, 2-(2,6-dioxopiperidin-3-yl)-6-(((1R,4r)-4-(3-((4-((1R,2S)-6-hydroxy-2-phenyl-1,2,3,4-tetrahydronaphthalen-1-yl)phenyl)amino)azetidin-1-yl)cyclohexyl)methyl)-6,7-dihydropyrrolo[3,4-f]isoindole-1,3(2H,5H)-dione]
> 100 | O=C1CCC(N2C(=O)c3cc4c(cc3C2=O)CN(C[C@H]2CC[C@@H](N3CC(Nc5ccc([C@@H]6c7ccc(O)cc7CC[C@@H]6c6ccccc6)cc5)C3)CC2)C4)C(=O)N1 (stereo partly drawn) [E 375, 2-(2,6-dioxopiperidin-3-yl)-6-(((1S,4s)-4-(3-((4-((1R,2S)-6-hydroxy-2-phenyl-1,2,3,4-tetrahydronaphthalen-1-yl)phenyl)amino)azetidin-1-yl)cyclohexyl)methyl)-6,7-dihydropyrrolo[3,4-f]isoindole-1,3(2H,5H)-dione]
